Counter-ions that a name gives are not always drawn.
**Q.** For COc1ccnc(C(=O)c2[nH]c3cc(Cl)ccc3c2CC(=O)O)c1 [Example 106, [6-Chloro-2-(4-methoxypyridine-2-carbonyl)-1H-indol-3-yl]acetic Acid], which melting point is on record?
**A.** 213 °C (dec.)

**Q.** Which melting point does the source give for CC(C)c1ccnc(C(=O)c2[nH]c3ccc(Cl)cc3c2CC(=O)O)c1 [Example 64, [5-Chloro-2-(4-isopropylpyridine-2-carbonyl)-1H-indol-3-yl]acetic Acid] here?
**A.** 227 to 228 °C

**Q.** With O=C(O)Cc1c(C(=O)c2ccc(Cl)cn2)[nH]c2ccc(Cl)cc12 [Example 86, [5-Chloro-2-(5-chloropyridine-2-carbonyl)-1H-indol-3-yl]acetic Acid] as the molecule, how does the melting point read?
**A.** 259 to 260 °C

**Q.** For CCOC(=O)Cc1c(C(=O)c2ccc(Cl)cc2)[nH]c2cc(Cl)ccc12 [Example 297, [6-Chloro-2-(4-chloro-benzoyl)-1H-indol-3-yl]-acetic Acid Ethyl Ester], which melting point is on record?
**A.** 186 to 188 °C

**Q.** Which melting point does the source give for Cc1cnc(C(=O)c2[nH]c3ccc(Cl)cc3c2CC(=O)O)s1 [Example 233, [5-Chloro-2-(5-methylthiazole-2-carbonyl)-1H-indol-3-yl]acetic Acid] here?
**A.** 231 to 233 °C

**Q.** For Cc1ccnc(C(=O)c2[nH]c3ccc(Cl)cc3c2CC(=O)O)c1 [Example 36, [5-Chloro-2-(4-methylpyridine-2-carbonyl)-1H-indol-3-yl]acetic Acid], which melting point is on record?
**A.** 230 to 231 °C

**Q.** For Cc1cccnc1C(=O)c1[nH]c2cc(Cl)ccc2c1CC(=O)O [Example 74, [6-Chloro-2-(3-methylpyridine-2-carbonyl)-1H-indol-3-yl]acetic Acid], which melting point is on record?
**A.** 195 to 196 °C

**Q.** Which melting point does the source give for O=C(O)Cc1c(C(=O)c2ccc(Cl)cc2)[nH]c2cc(Cl)ccc12 (as salt: malonate) [Example 9, [6-Chloro-2-(4-chlorobenzoyl)-1H-indol-3-yl]acetic Acid] here?
**A.** 189 to 190 °C

**Q.** For CCOC(=O)C=Cc1ccc(Cl)cc1N(CC(=O)c1ccc(Cl)cc1)S(=O)(=O)c1ccc(C)cc1 [Example 295, 3-{4-Chloro-2-[[2-(4-chloro-phenyl)-2-oxo-ethyl]-(toluene-4-sulfonyl)-amino]-phenyl}-acrylic Acid Ethyl Ester], which melting point is on record?
**A.** 162 to 165 °C

**Q.** Which melting point does the source give for CC(C)(C)c1ccnc(C(=O)c2[nH]c3cc(Cl)ccc3c2CC(=O)O)c1 [Example 70, [2-(4-tert-Butylpyridine-2-carbonyl)-6-chloro-1H-indol-3-yl]acetic Acid] here?
**A.** 203 to 205 °C

**Q.** For Cc1cc(C(=O)c2[nH]c3cc(Cl)ccc3c2CC(=O)O)no1 [Example 227, [6-Chloro-2-(5-methylisoxazole-3-carbonyl)-1H-indol-3-yl]acetic Acid], which melting point is on record?
**A.** 227 to 229 °C

**Q.** Which melting point does the source give for CCc1ccnc(C(=O)c2[nH]c3ccc(Cl)cc3c2CC(=O)O)c1 [Example 60, [5-Chloro-2-(4-ethylpyridine-2-carbonyl)-1H-indol-3-yl]acetic Acid] here?
**A.** 217 to 218 °C

**Q.** With CC(C)(C)c1ccnc(C(=O)c2[nH]c3ccc(Cl)cc3c2CC(=O)O)c1 [Example 72, [2-(4-tert-Butylpyridine-2-carbonyl)-5-chloro-1H-indol-3-yl]acetic Acid] as the molecule, how does the melting point read?
**A.** 209 to 211 °C

**Q.** For O=C(O)Cc1c(C(=O)c2ccc(Cl)cc2)[nH]c2cc(Cl)ccc12 [Example 9, [6-Chloro-2-(4-chlorobenzoyl)-1H-indol-3-yl]acetic Acid], which melting point is on record?
**A.** 181 to 183 °C
